In the supplement of paper PMC4954754:
± gives the uncertainty stated by the source.

Legend:
Details in all cases: 18 h
HEK293T-Rex XBP1-RLuc [1] = assay: maximal XBP1-RLuc activation from dose-response fit, relative to thapsigargin (% of thapsigargin); higher = stronger activation
Experimental: (§1)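 Dose-response of hit compounds in HEK293T-Rex cells stably expressing ERSE-FLuc or XBP1-RLuc reporters, 18 hr treatment, 1536-well; luminescence normalised to 500 nM thapsigargin (100%) and DMSO (0%), fitted to give EC50 (M) and maximal activation; '>' marks EC50 above the top tested dose (~17 µM).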

HEK293T-Rex ERSE-FLuc [2] = assay: EC50 for ERSE-FLuc reporter activation
Experimental: as §1

HEK293T-Rex XBP1-RLuc [3] = assay: EC50 for XBP1-RLuc reporter activation
Experimental: as §1

HEK293T-Rex ERSE-FLuc [4] = assay: maximal ERSE-FLuc activation from dose-response fit, relative to thapsigargin (% of thapsigargin); higher = stronger activation
Experimental: as §1

Structure (SMILES) | maximal XBP1-RLuc activation (HEK293T-Rex XBP1-RLuc [1]) | EC50 for ERSE-FLuc reporter activation (HEK293T-Rex ERSE-FLuc [2]) [µM] | EC50 for XBP1-RLuc reporter activation (HEK293T-Rex XBP1-RLuc [3]) [µM] | maximal ERSE-FLuc activation (HEK293T-Rex ERSE-FLuc [4])
CC(=O)Nc1ccc2nc(-c3ccc(OC(C)=O)cc3)sc2c1 | 67 ± 2.2 | > 16.9 | 11.3 | 15.7 ± 1.8
O=C(COC(=O)c1cc(O)c(O)c(O)c1)Nc1ccc(Br)cc1F | 26.4 ± 2.7 | > 16.9 | > 16.9 | 41.7 ± 3.5
N#C/C(=C(/O)c1cc(-c2ccccc2)nc2ccccc12)c1nc2ccccc2[nH]1 | 17.9 ± 1.4 | > 15.9 | > 15.9 | 24.8 ± 8.7
CC(=O)NC1C(OC2OC(CC(O)C3OC(n4ccc(=O)[nH]c4=O)C(O)C3O)C(O)C(O)C2NC(=O)/C=C\CCCCCCCCCC(C)C)OC(CO)C(O)C1O (configuration not stated) | 45 ± 4.9 | 0.521 | > 16.9 | 139 ± 19
Cc1ccc(O)c(NC(=O)c2cc(-c3ccco3)on2)c1 | 34.4 ± 4.2 | 4.85 | > 16.9 | 167.3 ± 1.6
O=C(NCCCn1ccnc1)c1cc(-c2cccs2)on1 | 12.1 ± 0.83 | 9.58 | > 16.9 | 89.1 ± 3.8
O=[N+]([O-])c1ccccc1N/N=C/c1ccc(O)c(O)c1 | 43.4 ± 3.5 | > 16.9 | > 16.9 | 38 ± 11
O=C(Nc1ccc(O)cc1)c1c(O)c2c([nH]c1=O)CCCC2 | 28.5 ± 3.6 | > 16.1 | > 16.1 | 22.3 ± 2.9
Nc1ccc2sc(-c3cc(Cl)c(N)c(Cl)c3)nc2c1 | 14.9 ± 1.8 | > 16.9 | > 16.9 | 22 ± 6.1
CCCCCCOc1ccc(/C(C)=N/NC2=NCCN2)cc1[N+](=O)[O-] | 16.3 ± 1.6 | > 16.9 | > 16.9 | 34.7 ± 1.6
Oc1ccc(/C=N/Nc2cccc(Cl)n2)c(O)c1 | 33.6 ± 1.8 | > 16.9 | > 16.9 | 24.4 ± 4.8
COc1ccc(CCNC(=O)c2cccc(-c3ccc(N4CCOCC4)nc3)c2)cc1 | 2.04 ± 0.93 | > 17 | > 17 | 15.9 ± 4.6
CN1C(=O)/C(=C\c2ccc(O)c(O)c2)SC1=S | 40.5 ± 3.6 | > 16.9 | > 16.9 | 28 ± 15
CCCNC(=O)c1cc(-c2cccs2)on1 | 9.95 ± 1.4 | 7.59 | > 16.9 | 92.7 ± 11
Nc1cn(-c2ccccc2)nc1-c1cccs1 | 156 ± 4.4 | > 19.6 | 3.71 | 47.7 ± 4.1
C=CCNC(=O)c1cc(-c2ccccc2)on1 | 10.7 ± 4.1 | 7.45 | > 16.9 | 99.6 ± 17
COc1cccc(Nc2nc(-c3ccc(OC)c(F)c3)cs2)c1 | 3.68 ± 1.6 | > 16.9 | > 16.9 | 19.7 ± 3.5
Cc1cc(C)nc(Nc2nc(-c3ccc(O)c(O)c3)cs2)n1 | 59.1 ± 1.4 | > 16.9 | 14.1 | 39.7 ± 7.3
